Tested on: acetylcholine receptors in the NMJ
Format: cell-based, human

Q: With α-bungarotoxin [BTX] as the substance, how does the “average number of spontaneous contractions after treatment” value read?
A: Its value is 0.17±0.17.

Q: What about the “average score (corrected fraction of effective light pulses), after treatment” value of the same substance?
A: Its value is 0.01±0.01.

Q: And the “light-triggered and spontaneous contractions” value?
A: Its value is “completely stopped”.

— patent US20210179989A1, “SYSTEM AND METHODS FOR OPTOGENETIC EVALUATION OF HUMAN NEUROMUSCULAR FUNCTION” (priority 2018, published 2021)
